In patent publication US20080167387A1, “Microglia Facilitated Amyloidogenesis Assay” (Pfizer Inc., priority 2005, published 2008):
“Also recorded” adds a separate entry of the source. Like-named read-outs stand apart in the source and are kept apart here.

Tests used:
[1] = tested on: amyloid formation from Aβ(1-42) peptides mediated by rat primary microglia; assay: Microglial-facilitated amyloidogenesis (MFA) assay, thioflavin S staining; type: cell-based; conditions: for amyloid formation mediated by microglia (thioflavin S staining) / amyloid formation mediated by rat primary microglia (thioflavin S staining): 37° C., 18 hours; for amyloid formation mediated by rat primary microglia (thioflavin S staining): 0.32 μM or 3.2 μM
Experimental: Primary rat brain microglia prepared as described in Example 1, were plated into Falcon black/clear 96 well plates at a concentration of 2×10^5 cells per well. The microglia were allowed to attach to cell walls after incubation at 37° C. for several hours to overnight. Fresh DMEM, with 10% fetal bovine serum, 0.1% penicillin/streptomycin and L-glutamine at 200 mM was used to replace the old media, while cells were gently washed to remove debris and dead cells.
[…] (The pre-treatment step is optional.) After pre-treatment, the candidate compound and Aβ (1-42) peptides were added to the pre-treated cells. The final concentration of Aβ (1-42) peptides was 10 μM. […] The final volume for each well was about 100 μl/well.
Aβ (1-42) peptides and Aβ (1-40) peptides, obtained from American Peptides of Sunnyvale, Calif., were stored at −20° C. Before use, Aβ (1-42) peptides were allowed to warm to room temperature for 15 minutes. To dissolve the Aβ (1-42) peptides, 200 μl of sterile water was added to the peptides. Each sample of peptides was vortexed to dissolve the peptides. Each sample was then diluted with 19 mls of MSFM. The final concentration of Aβ (1-42) peptides was 10 μM.
[…] After incubation, microglia were fixed with 100 μl of 95% ethanol and 5% acetic acid, which was directly poured into the media, and then incubated for 5 min. The media were poured out, and another 100 μl of fresh fixative having 95% ethanol and 5% acetic acid was added to the microglia for 10 min.
Fixed cells were stained with 100 μl thioflavin S solution, obtained from Sigma of St Louis, Mo. for approximately 3-5 min. Thioflavin S solution was 0.125 mg/ml in 40% ethanol, filtered through #1 Whatman filter paper before use.
Cells were washed twice, each time for 5 min, with 100 μl of 70% ethanol. After the washes, the cells were examined using an FITC filter under a fluorescent microscope. For each well, 3 images were collected and images were captured on a Zeiss Axiovert 100 M, with a 10× objective, using a digital CCD camera, and using MicroMax obtained from Roper Instruments of Tuscon, Ariz. Each treatment condition was run in triplicate, with 3 images collected per well to avoid areas with sparse cell growth and debris. Relative fluorescence intensity was measured.

rat primary microglia = assay: Microglial viability, MTT reaction product
Experimental: The viability of microglia was also determined by measuring the level of the tetrazolium salt 3,[4,5-dimethylthiazol-2-yl]-2,5-diphenyltetrazolium bromide (MTT) reaction product, using the method provided by Trevigen Inc. of Gaithersburg, Md.

[2] = tested on: intracellular cAMP in rat primary microglia; assay: Level of intracellular cAMP in microglia; type: cell-based; conditions: 1 μM, about 20 minutes
Experimental: The effect on the level of intracellular cAMP in microglia by PGE2 was also investigated. Rat primary microglia were prepared using the methods described in Example 1, and were exposed to PGE2, at a concentration of 1 μM, for about 20 minutes. […] Microglial viability was investigated by measuring the MTT reaction product in microglia.

[3] = 32 nM-10 μM, one hour prior to 10 μM Aβ(1-42)
[4] = Example 15, prostaglandin E2 receptor agonists

CCCCc1ccc(CN(CCCCCCC(=O)O)S(C)(=O)=O)cc1 [Compound II]
amyloid formation mediated by microglia (thioflavin S staining) [1, 3]: inhibited

CC[C@H](C)C(=O)O[C@H]1C[C@@H](C)C=C2C=C[C@H](C)[C@H](CC[C@@H]3C[C@@H](O)CC(=O)O3)[C@H]21 [lovastatin]
result in the MFA assay ([1]; conditions not given): very positively

CS(=O)(=O)NC(=O)CCC/C=C\C[C@H]1C(=O)C[C@@H](O)[C@@H]1/C=C/[C@@H](O)COc1ccccc1 [sulprostone]
microglial viability (MTT reaction product) (rat primary microglia; [4]): neither butaprost nor sulprostone had any effect

CCCCC[C@H](O)/C=C/[C@H]1[C@H](O)CC(=O)[C@@H]1C/C=C\CCCC(=O)O [PGE2, Prostaglandin E2]
amyloid formation mediated by rat primary microglia (thioflavin S staining) ([1]; from one hour prior to 10 μM Aβ(1-42)): able to reduce
amyloid formation mediated by rat primary microglia (thioflavin S staining) ([1]; from one hour prior to 10 μM Aβ(1-42), listed as prostaglandin EP2 sub-type): inhibitory effect
level of intracellular cAMP in microglia [2]: significantly increased
level of intracellular cAMP in microglia ([2]; listed as prostaglandin subtype EP2): increases
microglial viability (MTT reaction product) (rat primary microglia): did not lead to any decrease

NC[C@H](O)c1ccc(O)c(O)c1 [Norepinephrine]
cell-mediated amyloidogenesis ([1]; conditions not given): blocks

CC(C)(C)c1ccc(CN(Cc2cccc(OCC(=O)O)c2)S(=O)(=O)c2cccnc2)cc1 [Compound I, (3-{[(4-tert-Butyl-benzyl)-(pyridine-3-sulfonyl)-amino]-methyl}-phenoxy)-acetic acid]
amyloid formation mediated by microglia (thioflavin S staining) [1, 3]: inhibited

CCCC1([C@H](O)C/C=C/[C@H]2[C@H](O)CC(=O)[C@@H]2CCCCCCC(=O)OC)CCC1 [butaprost]
amyloid formation mediated by microglia (thioflavin S staining) [1, 3]: inhibit
microglial viability (MTT reaction product) (rat primary microglia; [4]): neither butaprost nor sulprostone had any effect

CCCC(=O)Nc1ncnc2c1ncn2[C@@H]1O[C@@H]2COP(=O)(O)O[C@H]2[C@H]1OC(=O)CCC [db-cAMP, dibutyryl-cAMP]
amyloid formation mediated by microglia (thioflavin S staining) ([1]; db-cAMP 8-80 μM, 8-Br cAMP 25-250 μM, from one hour prior to 10 μM Aβ(1-42)): inhibited; also recorded: inhibition
microglial viability (MTT reaction product) (rat primary microglia; Example 13, cAMP analogs): neither db-cAMP nor 8-Br cAMP had any effect

CC(C)c1c(C(=O)Nc2ccccc2)c(-c2ccccc2)c(-c2ccc(F)cc2)n1CC[C@@H](O)C[C@@H](O)CC(=O)O [atorvastatin]
result in the MFA assay ([1]; conditions not given): very positively

CC[C@H](C)C(=O)O[C@H]1CCC=C2C=C[C@H](C)[C@H](CC[C@@H]3C[C@@H](O)CC(=O)O3)[C@H]21 [mevastatin]
result in the MFA assay ([1]; conditions not given): very positively
